# Source: paper PMC4444023 (PLoS ONE, 2015)
# Values joined by “and” are separate entries in the source; they are usually repeats but may differ in a detail not shown here. Equal entries are not always repeated. “Also recorded” adds a separate entry of the source.
# Key:
# [1] = target: T1, human nSMase2 (Homo sapiens, UniProt Q9NY59); experiment: 14C-SM confirmatory direct activity assay; format: biochemical; parameters: Full length human nSMase2 cDNA with a C-terminal Flag tag; host or cells: HEK293, stably transfected; crude cell lysate used as enzyme
# T1 sequence (Q9NY59 1-655): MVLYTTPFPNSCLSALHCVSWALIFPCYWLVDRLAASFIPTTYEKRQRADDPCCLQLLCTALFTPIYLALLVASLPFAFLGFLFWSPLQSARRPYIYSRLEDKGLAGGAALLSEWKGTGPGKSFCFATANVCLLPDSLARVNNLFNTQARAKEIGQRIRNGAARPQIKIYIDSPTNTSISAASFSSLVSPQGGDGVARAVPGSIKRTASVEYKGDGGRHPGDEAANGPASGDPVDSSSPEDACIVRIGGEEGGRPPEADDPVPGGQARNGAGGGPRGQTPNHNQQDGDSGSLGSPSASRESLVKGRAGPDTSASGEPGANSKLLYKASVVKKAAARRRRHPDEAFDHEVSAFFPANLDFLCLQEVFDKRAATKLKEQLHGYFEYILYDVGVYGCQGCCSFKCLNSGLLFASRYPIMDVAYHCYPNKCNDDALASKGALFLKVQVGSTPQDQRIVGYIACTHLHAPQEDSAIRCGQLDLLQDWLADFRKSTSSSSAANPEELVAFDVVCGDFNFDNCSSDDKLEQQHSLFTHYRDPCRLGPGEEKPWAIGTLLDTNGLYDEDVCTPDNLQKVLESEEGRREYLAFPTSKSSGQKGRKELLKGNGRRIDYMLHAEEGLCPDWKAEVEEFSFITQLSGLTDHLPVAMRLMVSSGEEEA
# Description: This assay was dependent on the direct hydrolysis of ^14C-labeled SM (^14C N-methyl groups in the phosphorylcholine) by human nSMase2. Optimization of assay conditions was accomplished according to the methods of Barbone et al.. Briefly, bovine [N-methyl-^14C]-sphingomyelin (specific activity […], Perkin Elmer) and phosphatidylinositol (Avanti Polar Lipids) were evaporated to dryness under a stream of nitrogen and resuspended at an equimolar concentration of 0.1 mM in water with 0.5% Triton X-100 (Sigma). The solution was vortexed for 30 min and then sonicated for 30 min. Assay conditions were as follows: 50 μl total volume per reaction, consisting of 20 μM SM, reaction buffer (100 mM Tris-HCl pH 7.5, 80 mM MgCl2, 0.1% Triton X-100); 10 μl cell lysate containing recombinant human nSMase2 (0.5–1 μg protein/assay) and 5 μl of compound in reaction buffer containing 10% DMSO. After 1 h incubation at 37°C the reaction was terminated by the addition of 30 μl of water and 175 μl of chloroform/methanol (2:1, v:v), followed by vigorous vortexing. Tubes were centrifuged for 5 min at 10,000 xg at room temperature to separate the organic bottom phase containing labeled SM and the aqueous upper phase containing ^14C-labeled-phosphorylcholine. An aliquot (50 μl) of the upper phase was transferred to a vial with 10 ml of scintillant and counted for 2 min on a Beckman LS-6000IC scintillation counter. Enzyme activity was directly proportional to the disintegrations per min (dpm) resulting from the generation of ^14C-phosphorylcholine.
# [2] = target: B. cereus nSMase (Bacillus cereus, UniProt P11889); experiment: Inhibition of bacterial nSMase (not shown); format: biochemical
# [3] = target: aSMase; parameters: method as in earlier work; settings: ref personal communication with Drs. Marc Ferrer and Wei Zheng, NCATS; cited from earlier work
# [4] = test system: rat primary hippocampal neurons; experiment: Dendrite length (MAP2 imaging); format: cell-based; settings: for dendrite length, Mean: in µm (unit assumed)
# Description: Quantification of neuronal morphology was done in primary hippocampal neurons plated in PEI-coated ultra-thin and optically clear flat bottom 96-well plates (Corning). […] Neurons were then fixed with 4% paraformaldehyde, and permeabilized with 0.1% Triton X-100 in phosphate-buffered saline (PBS-T) for 20 min at room temperature. Blocking was done for 1 h with 5% normal goat serum solution, then incubation with anti-MAP2 antibody (1:500, Sigma) was done, followed by three washes with PBS-T and 2 h incubation with Alexa 595 secondary antibody (1:500, Life Technologies). Dendrites were imaged with a 20X objective using a Zeiss Axio Observer Z1 microscope equipped with an Orca ER CCD camera (Hamamatsu Inc). A 6x6 image was obtained from each culture well, and a montage was created using Neurolucida imaging software (mbf Biosecience). The effects of the experimental treatments on dendrite length were determined and the results presented are the average of 5–6 individual experiments. Statistical significance was determined by one-way ANOVA analysis.
# [5] = test system: Burkitt lymphoma xenografts; parameters: method as in PMID 16618762; settings: mice, cited from earlier work
# [6] = test system: BCL6-expressing Burkitt lymphoma cell lines; parameters: method as in PMID 16618762; settings: cited from earlier work
# [7] = target: T1, human nSMase2; experiment: Time dependence study of cambinol inhibitory activity; format: biochemical; parameters: Full length human nSMase2 cDNA with a C-terminal Flag tag; host or cells: HEK293, stably transfected; crude cell lysate used as enzyme; settings: pre-incubation up to 2 h
# Description: ^bCambinol IC50 values were determined from 8-points dose response curves run in duplicate.
# [8] = test system: SIRT2; settings: NAD-dependent deacetylase activity; cited from earlier work
# [9] = Solubility; format: physicochemical; settings: cambinol compared to GW4869
# Chain of B. cereus nSMase (P11889 28-333): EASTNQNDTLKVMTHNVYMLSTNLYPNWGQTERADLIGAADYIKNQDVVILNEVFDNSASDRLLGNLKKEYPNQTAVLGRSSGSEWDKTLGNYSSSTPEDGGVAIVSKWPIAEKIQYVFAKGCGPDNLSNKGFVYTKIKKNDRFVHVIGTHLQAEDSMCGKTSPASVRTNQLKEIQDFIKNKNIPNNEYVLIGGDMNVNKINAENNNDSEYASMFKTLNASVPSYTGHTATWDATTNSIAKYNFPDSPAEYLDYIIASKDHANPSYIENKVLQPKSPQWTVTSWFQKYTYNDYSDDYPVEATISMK
compound,measurement,setting,value
"O=c1[nH]c(=S)[nH]c(-c2ccccc2)c1Cc1c(O)ccc2ccccc12 [Cambinol, cambinol]",%Inhibition,[1]; Log [compound] -3.0,92.0% and 91.0%
same,%Inhibition,[1]; Log [compound] -3.47756,99.0% and 86.0%
same,%Inhibition,[1]; Log [compound] -4.0,83.0% and 80.0%
same,%Inhibition,[1]; Log [compound] -5.0,56.0% and 57.0%
same,%Inhibition,[1]; Log [compound] -5.47756,46.0% and 47.0%
same,%Inhibition,[1]; Log [compound] -6.0,13.0% and 15.0%
same,%Inhibition,[1]; Log [compound] -7.0,0.0% and 10.0%
same,%Inhibition,[1]; Log [compound] -7.47756,8.0% and 10.0%
same,%Inhibition,[1]; Log [compound] -8.0,8.0% and 11.0%
same,%Inhibition,[1]; Log [compound] -8.47756,14.0% and 7.0%
same,%Inhibition,[1]; Log [compound] -9.0,6.0% and 4.0%
same,%Inhibition,[1]; Log [compound] -9.47756,12.0% and 18.0* %
same,inhibition at 10 µM,[1]; at 10 μM,> 80%
same,IC50,[2],5 µM
same,IC50,[3],> 10 µM
same,"dendrite length, Mean","[4]; 100 ng/ml TNFα 18 h, 0.1 µM Cambinol",9111.111
same,"dendrite length, Mean","[4]; 100 ng/ml TNFα 18 h, 0.3 µM Cambinol",11450
same,"dendrite length, Mean","[4]; 100 ng/ml TNFα 18 h, 1 µM Cambinol",13799
same,"dendrite length, Mean","[4]; 100 ng/ml TNFα 18 h, 3 µM Cambinol",14262.5
same,"dendrite length, Mean","[4]; 100 ng/ml TNFα 18 h, 10 µM Cambinol",18867
same,"dendrite length, Mean","[4]; 100 ng/ml TNFα 18 h, 30 µM Cambinol",16000
same,"dendrite length, Mean","[4]; No TNFα, 30 µM Cambinol",15151.25
same,effect on TNFα-induced dendrite damage,[4]; decrease in dendritic length,prevented; also recorded: protected
same,tolerability,[5]; doses as high as 100 mg/kg intravenously,well tolerated
same,anti-cancer efficacy,[5],effective
same,apoptosis,[6],induced apoptosis
same,time dependence of inhibition,[7],did not change; also recorded: independent of pre-incubation time
same,IC50,[8],59 µM
same,aqueous solubility,[9],significantly higher; also recorded: improved
